Experimental data reported in patent US11826369B2, “Targeting the TLK1/NEK1 axis in prostate cancer” (Board of Supervisors of Louisiana State University and …, priority 2019, dated 2023).

Experiments:
recombinant TLK1B [1] = target: T1, recombinant TLK1B (Homo sapiens, UniProt Q9UKI8); test: High throughput screen with Rad9 peptide substrate / autokinase assay; format: biochemical; details: library screen
T1 sequence (Q9UKI8 1-549 isoform Q9UKI8-3): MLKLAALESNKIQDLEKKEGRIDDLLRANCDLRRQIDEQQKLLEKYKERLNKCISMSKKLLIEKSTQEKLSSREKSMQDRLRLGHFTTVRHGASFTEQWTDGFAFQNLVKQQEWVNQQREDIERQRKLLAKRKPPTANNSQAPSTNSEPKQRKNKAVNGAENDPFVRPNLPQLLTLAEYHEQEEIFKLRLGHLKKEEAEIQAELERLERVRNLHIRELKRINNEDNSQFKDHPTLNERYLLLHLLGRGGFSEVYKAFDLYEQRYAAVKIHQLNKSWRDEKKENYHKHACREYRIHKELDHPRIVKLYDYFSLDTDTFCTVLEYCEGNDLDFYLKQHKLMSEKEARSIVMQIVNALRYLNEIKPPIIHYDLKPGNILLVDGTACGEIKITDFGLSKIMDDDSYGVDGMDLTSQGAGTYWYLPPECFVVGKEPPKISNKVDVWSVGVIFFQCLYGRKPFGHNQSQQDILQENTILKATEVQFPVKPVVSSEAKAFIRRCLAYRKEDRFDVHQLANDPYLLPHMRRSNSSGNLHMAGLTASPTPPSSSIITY
Method: FIGS. 5A and 5B show Inhibition of TLK1/1B autophosphorylation by PTH. […] 293T cells were incubated for 1 hour with PPH. TLK1 was immunoprecipitated, followed by auto-phosphorylation with γ-ATP^32. The blots were then probed with TLK1 antiserum.
Identification of TLK inhibitors. The inventors have screened the Prestwick Library, partially the ChemDiv, and two proprietary libraries (10,000 compounds) for inhibitors of TLK with a high throughput screen with recombinant TLK1B and a Rad9 peptide substrate. […] The inhibition of autokinase activity was confirmed by TCA-precipitable counts with γ32P-ATP (FIG. 5A).

[2] = tested on: panel of cell lines, including RWPE1 and hTERT-HME1; test: Toxicity on a panel of cell lines without doxorubicin; format: cell-based; details: 15 μM, absence of doxorubicin
recombinant TLK1B [3] = target: T1, recombinant TLK1B; test: TLK1B kinase assay with Nek1 peptide (ADP Hunter), inhibitor screening; format: biochemical; parameters: The full-length, 65 KDa recombinant human TLK1B (hTLK1B) for the in-vitro experiments was expressed and purified from bacteria; made in house; host or cells: bacteria; details: tested at 20 μM
Method: FIG. 8A-FIG. 25 show further experiments into the present invention, with FIGS. 8A-8G show kinase assays, inhibitor screening, IC50 evaluation and competitive assays. Recombinant TLK1B purified to homogeneity (FIG. 8A) is active in kinase assays (FIG. 8B) and phosphorylates a specific Nek1 peptide (FIG. 8C). […] All experiments were conducted in triplicates. The DiscoverRx ADP Hunter™ (Eurofins DiscoverRx, Fremont, CA, US) Kit was used to measure the generation of ADP resulting from kinase phosphorylation of substrate.
Chemical synthesis of J54 and several different Phenothiazines and Protein expression and purification: Details were explained in section B of supplementary of material and methods. The full-length, 65 KDa recombinant human TLK1B (hTLK1B) for the in-vitro experiments was expressed and purified from bacteria as described earlier.
Results: A new PTH potent inhibitor of TLK1B. A few PTH antipsychotics were identified in a screen the inventors conducted from a compounds library as good inhibitors of TLK1. To find additional inhibitors, recombinant TLK1B was purified (FIG. 8A). The enzymatic activity was determined using the ADP-Hunter reagents and a Nek1 peptide containing the T141 target site. […] Several structurally similar compounds were synthesized as described in the Appendix (and see NMR and MS data FIGS. 10 and 11) and tested at 20 μM (FIGS. 8E and 8F). […] The inventors continued the inventors' characterization of J54.

456 human kinases = test: Kinome panel (KinomeScan-DiscoverX); format: binding
LNCaP cells = test: Emergence of androgen insensitive (AI) colonies of LNCaP with bicalutamide; format: cell-based
LNCaP xenografts = test: LNCaP xenograft model; format: in vivo, NOD/SCID mice; details: mouse, in vivo
Method: Treatment started 19 days after implantation when the tumors measure ˜200 mm^3. Two independent experiment with 5 mice per group were carried out. J54 and Bicalutamide was dissolved in DMSO and diluted in corn oil 1:10 and administered IP bi-weekly. Sectioning and processing of the tissues were carried out in the FWCC Histology Service, using automated processes and equipment to provide uniform and standardized results. Indirect labeling was with ABC Elite: RTU Vectastain Elite Reagent, Vector #PK-7100; DAB: ImmPact DAB, Vector #SK-4105. Light counterstaining was done with hematoxylin. […] Note the weak pNek1 stain in the tumor from mice treated with J54, in contrast to the increase seen with BIC.
LNCaP Xenograft Model and Immunohistochemistry (IHC): All animals used in this study were approved by LSUHSC IACUC and following ARRIVE guidelines. Male NOD/SCID mice (5 per group) were purchased from Jackson labs. LNCaP cells were injected as described earlier. Mice were treated IP bi-weekly with J54 (5 mg/kg body weight—dose estimation derived from pharmacokinetics study) and/or Bicalutamide (100 mg/kg).
The inventors sought to establish if the addition of J54 could suppress the resurgence of tumor growth of LNCaP xenografts and their latter conversion to CRPC. Following formation of sizeable tumors (˜200 mm^3), castration or anti-androgens arrest the progression of LNCaP xenografts for some time (2-3 weeks), while subsequently the tumors start growing again at an accelerated rate which is refractory to ADT (AI). Therefore, the inventors injected LNCaP cells in matrigel in both flanks of NOD-SCID mice, and then randomly assigned them to four treatment groups (n=5 per group×2 independent experiments), as shown in FIGS. 13A-13C. […] The inventors should also point out that the inventors treated the mice with J54 only bi-weekly due to the favorable pharmacokinetics, where maximal plasma concentration of 100 ng/ml ([…]) were reached 2 h after IP injection, and was still present at −6 ng/ml (6 μM) after 24 h (FIG. 18A-18C).

SMILES | inhibition of TLK (recombinant TLK1B [1]) | toxicity [2] | also measured
CN1CCN(CCCN2c3ccccc3Sc3ccc(C(F)(F)F)cc32)CC1 [TFP, Trifloroperazine] | strong inhibitors | low toxicity | –
CN1c2ccccc2Sc2ccccc21 [J56, 10-methyl-10H-phenothiazine] | – | – | inhibition of TLK1B compared with standard (recombinant TLK1B [3]): more inhibitory than Staurosporin
CSc1ccc2c(c1)N(CCC1CCCCN1C)c1ccccc1S2 (stereo not shown) [THD, Thioridazine] | strong inhibitors | low toxicity | specificity on kinome panel (456 human kinases): no other kinase (except TLK2) in the panel was inhibited; growth inhibition in androgen containing medium (FCS) (LNCaP cells; 3-9 μM THD): 50%; emergence of AI colonies (LNCaP cells; 3-9 μM THD with bicalutamide, three weeks): few or no AI colonies emerged; conversion of LNCaP cells to androgen independent growth (LNCaP cells; three weeks of culture with bicalutamide): Complete inhibition
CN(C)CCCN1c2ccccc2Sc2ccccc21 [PMZ, Promazine] | strong inhibitors | – | –
CC(O)(CS(=O)(=O)c1ccc(F)cc1)C(=O)Nc1ccc(C#N)c(C(F)(F)F)c1 (stereo not shown) [BIC, Bicalutamide, reference compound] | – | – | lag before exponential growth following beginning of administration (LNCaP xenografts): 12 days
OCCN1CCN(CCCN2c3ccccc3Sc3ccc(Cl)cc32)CC1 [PPH, Perphenazine] | strong inhibitors | low toxicity | –
